# Measurements reported in US4156724A, “N-acylamino-alpha-arylacetamido cephalosporins and antibacterial compositions and methods containing them” (Sumitomo Chemical Company, Limited, priority 1974, dated 1979).
# Where two headings read alike, the source gives them in different places.
# Legend:
# Assay type in all cases: cell-based
# [1] = tested on: Enterobacter aerogeneus No. 75; assay: Minimum Inhibitory Concentration, Enterobacter aerogeneus No. 75; settings: Enterobacter aerogeneus No. 75; for MIC: read-out: Minimum Inhibitory Concentration
# Experimental: (§1) anti-microbial activity tests were carried out on the compounds obtained in the Examples.
# Escherichia coli NIHJ = assay: Minimum Inhibitory Concentration, Escherichia coli NIHJ; settings: Escherichia coli NIHJ; for MIC: read-out: Minimum Inhibitory Concentration
# Experimental: as §1
# Proteus vulgaris HX 19 = assay: Minimum Inhibitory Concentration, Proteus vulgaris HX 19; settings: Proteus vulgaris HX 19; for MIC: HX19, read-out: Minimum Inhibitory Concentration
# Experimental: as §1
# [2] = tested on: Klebsiella pneumoniae 602; assay: Minimum Inhibitory Concentration, Klebsiella pneumoniae 602; settings: for MIC: Klebsiella pneumoniae, 602, Klebsiella pneumoniae 602, read-out: Minimum Inhibitory Concentration
# Experimental: as §1
# [3] = tested on: Staphylococcus aureus 209 P; assay: Minimum Inhibitory Concentration, Staphylococcus aureus 209 P; settings: Staphylococcus aureus 209 P; for MIC: read-out: Minimum Inhibitory Concentration
# Experimental: as §1
# [4] = tested on: Staphylococcus aureus FS 289; assay: Minimum Inhibitory Concentration, Staphylococcus aureus FS 289
# Experimental: as §1
# *Staphylococcus aureus FS 289: strain resistant to penicillin
# [5] = tested on: Pseudomonas aeruginosa 104; assay: Minimum Inhibitory Concentration, Pseudomonas aeruginosa 104; settings: Pseudomonas aeruginosa 104; for MIC: read-out: Minimum Inhibitory Concentration
# Experimental: as §1
# Serratia No. 72 = assay: Minimum Inhibitory Concentration, Serratia No. 72
# Experimental: as §1
# [6] = FS289, Staphylococcus aureus FS 289, strain resistant to penicillin, read-out: Minimum Inhibitory Concentration
MIC [1],MIC (Escherichia coli NIHJ),MIC (Proteus vulgaris HX 19),MIC [2],MIC [3],"MIC [4, 6]",MIC [5],MIC (Serratia No. 72),Structure (SMILES),"MIC ([4]; Staphylococcus aureus, FS289, read-out: Minimum Inhibitory Concentration)",Minimum Inhibitory Concentration [1],Minimum Inhibitory Concentration (Escherichia coli NIHJ),Minimum Inhibitory Concentration (Proteus vulgaris HX 19),Minimum Inhibitory Concentration ([2]; Klebsiella pneumoniae 602),Minimum Inhibitory Concentration [3],"Minimum Inhibitory Concentration ([4]; Staphylococcus aureus FS 289, strain resistant to penicillin)",Minimum Inhibitory Concentration [5],Minimum Inhibitory Concentration (Serratia No. 72)
25 µg/mL,6.25 µg/mL,0.39 µg/mL,3.13 µg/mL,1.56 µg/mL,6.25 µg/mL,6.25 µg/mL,50 µg/mL,CC(=O)OCC1=C(C(=O)O)N2C(=O)[C@@H](NC(=O)[C@H](NC(=O)c3cnc4nc(C)c(C)nc4c3O)c3ccc(NC(N)=O)cc3)[C@H]2SC1 [Example 35],,,,,,,,,
6.25 µg/mL,3.13 µg/mL,0.2 µg/mL,1.56 µg/mL,0.78 µg/mL,6.25 µg/mL,3.13 µg/mL,12.5 µg/mL,NC(=O)Nc1cccc([C@@H](NC(=O)c2cnc3cccnc3c2O)C(=O)N[C@@H]2C(=O)N3C(C(=O)O)=C(CSc4nnc(CO)s4)CS[C@H]23)c1 [Example 36],,,,,,,,,
6.25 µg/mL,1.56 µg/mL,0.2 µg/mL,1.56 µg/mL,0.78 µg/mL,6.25 µg/mL,3.13 µg/mL,12.5 µg/mL,NC(=O)Nc1cccc([C@@H](NC(=O)c2cnc3cccnc3c2O)C(=O)N[C@@H]2C(=O)N3C(C(=O)O)=C(CSc4ccc(O)nn4)CS[C@H]23)c1 [Example 37],,,,,,,,,
3.13 µg/mL,1.56 µg/mL,0.1 µg/mL,1.56 µg/mL,0.78 µg/mL,6.25 µg/mL,3.13 µg/mL,12.5 µg/mL,Cn1nnnc1SCC1=C(C(=O)O)N2C(=O)[C@@H](NC(=O)[C@H](NC(=O)c3cnc4cccnc4c3O)c3cccc(NC(N)=O)c3)[C@H]2SC1 [Example 38],,,,,,,,,
3.13 µg/mL,1.56 µg/mL,0.1 µg/mL,1.56 µg/mL,0.78 µg/mL,6.25 µg/mL,3.13 µg/mL,12.5 µg/mL,COc1ccc2ncc(C(=O)N[C@@H](C(=O)N[C@@H]3C(=O)N4C(C(=O)O)=C(CSc5nnnn5C)CS[C@H]34)c3cccc(NC(N)=O)c3)c(O)c2n1 [Example 39],,,,,,,,,

# The next lines start with the compound.
Structure (SMILES),MIC [1],MIC (Escherichia coli NIHJ),MIC (Proteus vulgaris HX 19),MIC [2],MIC [3],"MIC [4, 6]",MIC [5],MIC (Serratia No. 72),"MIC ([4]; Staphylococcus aureus, FS289, read-out: Minimum Inhibitory Concentration)",Minimum Inhibitory Concentration [1],Minimum Inhibitory Concentration (Escherichia coli NIHJ),Minimum Inhibitory Concentration (Proteus vulgaris HX 19),Minimum Inhibitory Concentration ([2]; Klebsiella pneumoniae 602),Minimum Inhibitory Concentration [3],"Minimum Inhibitory Concentration ([4]; Staphylococcus aureus FS 289, strain resistant to penicillin)",Minimum Inhibitory Concentration [5],Minimum Inhibitory Concentration (Serratia No. 72)
Cc1ccc2c(O)c(C(=O)N[C@@H](C(=O)N[C@@H]3C(=O)N4C(C(=O)O)=C(CSc5nnnn5C)CS[C@H]34)c3ccc(NC(N)=O)cc3)cnc2n1 [Example 26],6.25 µg/mL,3.13 µg/mL,0.2 µg/mL,3.13 µg/mL,1.56 µg/mL,6.25 µg/mL,3.13 µg/mL,12.5 µg/mL,,,,,,,,,
CN(C)c1ccc2ncc(C(=O)N[C@@H](C(=O)N[C@@H]3C(=O)N4C(C(=O)O)=C(CSc5cnn[nH]5)CS[C@H]34)c3ccc(NC(N)=O)cc3)c(O)c2n1 [Example 27],3.13 µg/mL,3.13 µg/mL,0.2 µg/mL,1.56 µg/mL,1.56 µg/mL,,3.13 µg/mL,12.5 µg/mL,6.25 µg/mL,,,,,,,,
Cc1nnc(SCC2=C(C(=O)O)N3C(=O)[C@@H](NC(=O)[C@H](NC(=O)c4cnc5ccc(N(C)C)nc5c4O)c4ccc(NC(N)=O)cc4)[C@H]3SC2)s1 [Example 28],3.13 µg/mL,1.56 µg/mL,0.1 µg/mL,1.56 µg/mL,1.56 µg/mL,6.25 µg/mL,3.13 µg/mL,12.5 µg/mL,,,,,,,,,
CN(C)c1ccc2ncc(C(=O)NC(C(=O)NC3C(=O)N4C(C(=O)[O-])=C(CSc5nnnn5C)CSC34)c3ccc(NC(N)=O)cc3)c(O)c2n1.[Na+] (centres unmarked) [Example 29],,,,,,,,,,3.13 µg/mL,1.56 µg/mL,0.2 µg/mL,1.56 µg/mL,0.78 µg/mL,6.25 µg/mL,3.13 µg/mL,12.5 µg/mL
COc1cnc2c(O)c(C(=O)N[C@@H](C(=O)N[C@@H]3C(=O)N4C(C(=O)O)=C(COC(C)=O)CS[C@H]34)c3cccc(NC(N)=O)c3)cnc2n1 [Example 31],25 µg/mL,3.13 µg/mL,0.39 µg/mL,3.13 µg/mL,0.78 µg/mL,6.25 µg/mL,6.25 µg/mL,50 µg/mL,,,,,,,,,
CC(=O)OCC1=C(C(=O)O)N2C(=O)[C@@H](NC(=O)[C@H](NC(=O)c3cnc4cncnc4c3O)c3cccc(NC(N)=O)c3)[C@H]2SC1 [Example 32],12.5 µg/mL,3.13 µg/mL,0.39 µg/mL,3.13 µg/mL,0.78 µg/mL,6.25 µg/mL,6.25 µg/mL,50 µg/mL,,,,,,,,,
COc1ccc2ncc(C(=O)N[C@@H](C(=O)N[C@@H]3C(=O)N4C(C(=O)O)=C(COC(C)=O)CS[C@H]34)c3cccc(NC(N)=O)c3)c(O)c2n1 [Example 33],12.5 µg/mL,3.13 µg/mL,0.78 µg/mL,3.13 µg/mL,0.78 µg/mL,6.78 µg/mL,6.25 µg/mL,50 µg/mL,,,,,,,,,
CSc1ccc2ncc(C(=O)N[C@@H](C(=O)N[C@@H]3C(=O)N4C(C(=O)O)=C(COC(C)=O)CS[C@H]34)c3cccc(NC(N)=O)c3)c(O)c2n1 [Example 34],12.5 µg/mL,3.13 µg/mL,0.78 µg/mL,3.13 µg/mL,0.78 µg/mL,6.25 µg/mL,6.25 µg/mL,50 µg/mL,,,,,,,,,
